# Results reported in US20220088020A1, “TREATMENT OF ALOPECIA AREATA” (LEO PHARMA A/S, priority 2015, published 2022).
# Columns and labels:
# JAK = JAK = one or more of JAK1, JAK2, JAK3, TYK2; described in Patent Literature 1 and 2; cited from earlier work
# [1] = system: C3H/HeJ mouse alopecia model; test: Experiment 1: promotion of hair growth in C3H/HeJ mouse alopecia model; assay type: in vivo; conditions: Compound A 1% or 3% by weight in carrier, 50 μL applied to dorsal region once a day for 78 days; median of each group, FIG. 1
# Method: (§1) An effect of promoting hair growth by Compound A was evaluated using a C3H/HeJ mouse alopecia model (Non-Patent Literature 1).
# A skin specimen having a diameter of 2 to 2.5 cm was prepared from a retired C3H/HeJJcI mouse (CLEA Japan, Inc.) which had spontaneously developed alopecia universalis, and was grafted into a dorsal region of each of eight-week-old female C3H/HeJJcI mice (CLEA Japan, Inc.). Twenty weeks after the surgery, mice which developed alopecia throughout the whole bodies thereof were selected, and a carrier, 1% by weight of a test substance, 3% by weight of the test substance or a control substance was applied to the dorsal region at a volume of 50 μL once a day for 78 days. Day 1 was a day on which the application started. The carrier used was a mixture which contained white soft paraffin, hard paraffin and squalane at a blend ratio of 85:5:10. Compound A was used as the test substance. A betamethasone valerate ointment (0.12%) was used as the control substance.
# The Hair Growth Index (HGI) in the dorsal region of each of the mice was determined on day 1, day 7, day 15, day 29, day 43, day 57, day 71 and day 79. […]
# [2] = system: C3H/HeJ mouse alopecia model; test: Experiment 2: promotion of hair growth in C3H/HeJ mouse alopecia model; assay type: in vivo; conditions: Compound A ointment 0.3% or 3% by weight, 50 μL applied to dorsal region once a day for 84 days; median of each group, FIG. 2
# Method: as §1
# A skin specimen having a diameter of 2 cm was prepared from a retired C3H/HeJJcI mouse (CLEA Japan, Inc.) which had spontaneously developed alopecia universalis, and was grafted into a dorsal region of each of eight-week-old female C3H/HeJJcI mice (CLEA Japan, Inc.). […]
# The Hair Growth Index (HGI) in the dorsal region of each of the mice was determined on day 1, day 19, day 29, day 43, day 57, day 71 and day 85. The HGI for each of the mice was calculated by measuring, with naked eyes, the level of the state of hair growth (score; 0: no hair, 1: stubble, short broken hairs, 2: sparse intermediate length hairs, 3: normal length and density hairs) and the percentage (%) of the skin area in which each level of state of hair growth occurred, determining the product of the level of the state of hair growth (score) with the percentage (%) of the skin area in which its level of the state of hair growth occurred, and then summing all of the values of the products.
smiles,measurement,setting,value
"C[C@H]1CN(C(=O)CC#N)[C@]12CCN(c1ncnc3[nH]ccc13)C2 [Compound A, 3-[(3S,4R)-3-methyl-6-(7H-pyrrolo[2,3-d]pyrimidin-4-yl)-1,6-diazaspiro[3.4]octan-1-yl]-3-oxopropanenitrile]",JAK inhibition,JAK,inhibit JAK
same,Hair Growth Index (HGI) in the dorsal region,[1],promotion of hair growth
same,Hair Growth Index (HGI) in the dorsal region,[2],promotion of hair growth
